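Test compounds were applied to cells in 96-well plates for 48 hours at 5 doses. The concentration for 50% growth inhibition is given as GI50.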 Active and inactive are the calls of the source. Rule as the data show it: active = GI50 up to about 1.1 µM and inactive = higher.
How the values were obtained:
Experiment in all cases: growth of human tumour cells (NCI), 48 h
786-0 = system: 786-0
A549 = system: A549
COLO 205 = system: COLO 205
HCT-15 = system: HCT-15
HOP-92 = system: HOP-92
HT-29 = system: HT-29
NCI-H23 = system: NCI-H23
OVCAR-4 = system: OVCAR-4
RPMI-8226 = system: RPMI-8226
SF-268 = system: SF-268
SK-MEL-5 = system: SK-MEL-5
SN12C = system: SN12C
SNB-19 = system: SNB-19
U-251 = system: U-251
UACC-62 = system: UACC-62
CCRF-CEM = system: CCRF-CEM
SK-OV-3 = system: SK-OV-3

Structure (SMILES)	GI50 (786-0)	GI50 (A549)	GI50 (COLO 205)	GI50 (HCT-15) [µM]	GI50 (HOP-92)	GI50 (HT-29)	GI50 (NCI-H23)	GI50 (OVCAR-4)	GI50 (RPMI-8226)	GI50 (SF-268)	GI50 (SK-MEL-5)	GI50 (SN12C)	GI50 (SNB-19)	GI50 (U-251)	GI50 (UACC-62)	GI50 (CCRF-CEM)	GI50 (SK-OV-3)
COc1cccc(/C=C2\CCC(C)(CN(C)C)C2=O)c1 (stereo not given)	> 100 µM (inactive)	> 100 µM (inactive)	60.1 µM (inactive)	35.6	> 100 µM (inactive)	53.3 µM (inactive)	> 100 µM (inactive)	98.4 µM (inactive)	28.4 µM (inactive)	> 100 µM (inactive)	69 µM (inactive)	> 100 µM (inactive)	34.4 µM (inactive)	> 100 µM (inactive)	> 100 µM (inactive)		
CCOc1ccccc1NC(=O)CC1Sc2ccccc2NC1=O (stereo not given)	> 100 µM (inactive)	82.2 µM (inactive)	33.3 µM (inactive)	53	18.2 µM (inactive)	55.3 µM (inactive)	61.2 µM (inactive)	68.9 µM (inactive)		> 100 µM (inactive)	26.1 µM (inactive)	> 100 µM (inactive)	> 100 µM (inactive)	79.4 µM (inactive)	36.2 µM (inactive)	31.8 µM (inactive)	> 100 µM (inactive)
CN1C(c2ccccc2)CC(=Nc2ccccc2)CC1c1ccccc1 (stereo not given)	14.2 µM (inactive)	11.5 µM (inactive)	10.7 µM (inactive)	16.1	7.78 µM (inactive)	8.67 µM (inactive)	15.6 µM (inactive)	10.4 µM (inactive)	2.98 µM (inactive)	10.8 µM (inactive)	10.9 µM (inactive)		14.3 µM (inactive)	6.82 µM (inactive)		16.2 µM (inactive)	2.95 µM (inactive)
N#CNCC(COCc1ccccc1)c1ccccc1 (stereo not given)	> 100 µM (inactive)	> 100 µM (inactive)	> 100 µM (inactive)	86.1	> 100 µM (inactive)		> 100 µM (inactive)	> 100 µM (inactive)	> 100 µM (inactive)	> 100 µM (inactive)	49.2 µM (inactive)	> 100 µM (inactive)	> 100 µM (inactive)	> 100 µM (inactive)	> 100 µM (inactive)	> 100 µM (inactive)	> 100 µM (inactive)
CCc1ccccc1NC(=O)C1=C(C)NC(C)=C(C(=O)Nc2ccccc2CC)C1c1ccccc1Cl	> 100 µM (inactive)	> 100 µM (inactive)	> 100 µM (inactive)		57.1 µM (inactive)	> 100 µM (inactive)	> 100 µM (inactive)	> 100 µM (inactive)	> 100 µM (inactive)	> 100 µM (inactive)	> 100 µM (inactive)	> 100 µM (inactive)	> 100 µM (inactive)	> 100 µM (inactive)		37.8 µM (inactive)	> 100 µM (inactive)
CN(/N=N/c1[nH]cnc1C(N)=O)C1CCCCC1		> 100 µM (inactive)	> 100 µM (inactive)	> 100	55.1 µM (inactive)	> 100 µM (inactive)	> 100 µM (inactive)	55.1 µM (inactive)	52.6 µM (inactive)	> 100 µM (inactive)	> 100 µM (inactive)	> 100 µM (inactive)	> 100 µM (inactive)	> 100 µM (inactive)	61.7 µM (inactive)	55.2 µM (inactive)	48.2 µM (inactive)
CCOC(=O)C(Sc1ccccc1)c1c(OC)cc(=O)oc1/C=[N+](/[O-])c1ccc(N(C)C)cc1 (stereo not given)	19.7 µM (inactive)	28.4 µM (inactive)	22.4 µM (inactive)	15.4		16.3 µM (inactive)	27.5 µM (inactive)	26.7 µM (inactive)	19.6 µM (inactive)	31.5 µM (inactive)	20 µM (inactive)	16.2 µM (inactive)	54.8 µM (inactive)	24.7 µM (inactive)	22.6 µM (inactive)	4.52 µM (inactive)	75.7 µM (inactive)
C=C1CCC2C(C)(CO)C(O)CCC2(C)C1CC(O)/C(=C/CO)C(=O)O (stereo not given)	> 100 µM (inactive)	> 100 µM (inactive)	> 100 µM (inactive)	> 100	> 100 µM (inactive)	> 100 µM (inactive)		> 100 µM (inactive)	> 100 µM (inactive)	> 100 µM (inactive)	> 100 µM (inactive)	> 100 µM (inactive)	> 100 µM (inactive)	> 100 µM (inactive)	> 100 µM (inactive)	> 100 µM (inactive)	> 100 µM (inactive)
NC(=O)c1ncn(CCN2CCN(C(=O)NCCCCCCNC(=O)N3CCN(CCn4cnc(C(N)=O)c4N)CC3)CC2)c1N	> 100 µM (inactive)	> 100 µM (inactive)	> 100 µM (inactive)	> 100	> 100 µM (inactive)	> 100 µM (inactive)	> 100 µM (inactive)	> 100 µM (inactive)	> 100 µM (inactive)	> 100 µM (inactive)	> 100 µM (inactive)	> 100 µM (inactive)	> 100 µM (inactive)	> 100 µM (inactive)	> 100 µM (inactive)	> 100 µM (inactive)	> 100 µM (inactive)
Cc1nc2c(=O)n(C)c(=O)nc-2n(-c2ccc(Cl)cc2)c1C	> 100 µM (inactive)	> 100 µM (inactive)	> 100 µM (inactive)	61.9	> 100 µM (inactive)	> 100 µM (inactive)	> 100 µM (inactive)	31 µM (inactive)		> 100 µM (inactive)	79.1 µM (inactive)	> 100 µM (inactive)	> 100 µM (inactive)	> 100 µM (inactive)	43.9 µM (inactive)	60.1 µM (inactive)	> 100 µM (inactive)
O=C(Nc1ccccc1-c1nn(CN2CCNCC2)c(=S)n(CN2CCNCC2)c1=O)C(F)(F)F	18.7 µM (inactive)	22.3 µM (inactive)	17.1 µM (inactive)	15.9	22 µM (inactive)	23.4 µM (inactive)	17.9 µM (inactive)	19.5 µM (inactive)		21.4 µM (inactive)	17.3 µM (inactive)	19.4 µM (inactive)	21.6 µM (inactive)	16.9 µM (inactive)	18.3 µM (inactive)	17.1 µM (inactive)	20 µM (inactive)
O=C(O)c1cc2c(ncc3c(=O)n(-c4ccccc4)[nH]c32)s1		> 100 µM (inactive)	> 100 µM (inactive)	> 100	> 100 µM (inactive)	> 100 µM (inactive)	> 100 µM (inactive)	> 100 µM (inactive)	> 100 µM (inactive)	> 100 µM (inactive)		> 100 µM (inactive)	> 10 µM (inactive)	> 100 µM (inactive)	> 100 µM (inactive)	> 100 µM (inactive)	> 100 µM (inactive)
C[Si](C)(C)[C@@]1([Se]c2ccccc2)CC[C@@H]1C(=O)c1ccccc1	> 100 µM (inactive)	56.2 µM (inactive)	> 100 µM (inactive)	45.8		42.3 µM (inactive)	33.7 µM (inactive)	67.9 µM (inactive)	20.1 µM (inactive)	28.8 µM (inactive)	18.5 µM (inactive)	61.4 µM (inactive)	35.8 µM (inactive)	83.8 µM (inactive)	71.4 µM (inactive)	27.7 µM (inactive)	> 100 µM (inactive)
